Data taken from patent EP1283052A1, “Pharmaceutical composition containing caspase-8 and /or caspase-9 useful for overcoming glucocorticoid- and cancer therapy-induced apoptosis of tumours” (Deutsches Krebsforschungszentrum Stiftung des öffentlichen …, priority 2001, dated 2003).

Test system: apoptosome
Test: Co-immunoprecipitation of apoptosome proteins with Apaf-1 in P5 cells
Format: cell-based, human
Conditions: carcinoma cells (P5), cisplatin, 24 h; Fig. 5b
Experimental: • (a) P693 and CEM cells were treated with cisplatin (2 µg/ml) in the absence or presence of DEX (1 µM) as indicated. 24 and 48 h following treatment cells were lysed and caspase-9 activity was determined using a fluorescent caspase-9 assay and spectroscopy. • (b) P5 and CEM cells were treated as described above. 24 h after stimulation Apaf-1 was immunoprecipitated from the cell extracts using a […]. Aliquotes of the precipitates were separated by three different gels and analysed by Western blotting using rabbit polyclonal Apaf-1, mAb cytochrome c or caspase-9 antibodies. The antibody heavy chain band (IgGH) ensures equal conditions. […]
• (A) Cell culture. […] The mice were given 0.28 mg/L DEX in drinking water, and the amount of water consumed was monitored. […] The tumour volumes were measured using callipers, and calculated using, as an approximation, the formula for volume of a hemi-ellipsoid: π(width^2 x length)/6. […] Early apoptotic changes were identified by staining of cells with fluoresceinthiocyanate (FITC)-conjugated annexin V and propidium iodide (Becton Dickinson, Heidelberg, Germany) and analysed by flow cytometry (FACScan, Becton Dickinson) as described (Herr et al., EMBO J. 16 (1997), 6200-6208) • (E) Immunohistochemistry. […] Bound antibodies were detected by FITC conjugated anti-mouse or anti-rabbit IgG (Molecular Probes Europe, Leiden, The Netherlands). […]

## N.N.[Cl][Pt][Cl] [cisplatin]
  amounts of immunoprecipitated apoptosome members (APAF-1, caspase-9, cytochrome c): strong induction in the amounts of APAF-1, caspase-9 and cytochrome c
